The record followed here is patent publication US20220235014A1, “PROCESS FOR THE PREPARATION OF HIGHLY PURE ERLOTINIB HYDROCHLORIDE” (SHIVALIK RASAYAN LIMITED, priority 2021, published 2022).

Each structure is given as a SMILES string. Read-outs that look alike come from different tables or passages of the source.

[1] abbreviates: 1M storage, table does not say which condition (30° C./65% or 40° C./75% RH).
Where [2] appears, read: 2M storage, table does not say which condition (30° C./65% or 40° C./75% RH).
[3] abbreviates: 3M storage, table does not say which condition (30° C./65% or 40° C./75% RH).
Where [4] appears, read: 6M storage, table does not say which condition (30° C./65% or 40° C./75% RH).
Setting [5] is: 9M storage, table does not say which condition (30° C./65% or 40° C./75% RH).

As to `C#Cc1cccc(Nc2ncnc3cc(OCCOC)c(OCCOC)cc23)c1.Cl` [Form SEA, N-(3-ethynylphenyl)-6,7-bis (2-methoxy ethoxy)-4-quinazolinamine hydrochloride], the “Assay (by HPLC; on anhydrous basis)” value stood at 99.19% w/w under setting [1]; 101.56% w/w under setting [2]; 101.41% w/w under setting [3]; 99.99% w/w under setting [4]; 100.40% w/w under setting [5]; 100.84% w/w (Initial, limit >99.8%). The “Moisture Content (by KF method)” value under setting [1] was 0.24% w/w; the “Moisture Content (by KF method)” value under setting [2] was 0.26% w/w; the “Moisture Content (by KF method)” value under setting [3] is given as 0.21% w/w; the “Moisture Content (by KF method)” value under setting [4] is listed as 0.17% w/w; the “Moisture Content (by KF method)” value under setting [5] came to 0.42% w/w; the “Moisture Content (by KF method)” value (Initial, limit not more than 0.5% w/w) is given as 0.17% w/w. Besides, the “HPLC purity after 9 months stability” value (9 months) is “exceeding 99.8 % w/w by HPLC”. The “time over which the crystalline form was stable under storage” value was “up to 12 months” (storage at 30° C./65±5%) and “up to 12 months” (storage at 40° C./75±5%).
